The text below walks through data of patent US10287267B2, “Isoquinolin-3-yl carboxamides and preparation and use thereof” (Samumed, LLC, priority 2016, dated 2019).

Like-named read-outs stand apart in the source and are kept apart here.

Test [1] has as its target recombinant DYRK1A kinase (Homo sapiens (Human), UniProt Q13627). Kind of test: DYRK1A kinase assay (Ser/Thr 18 peptide Z-lyte FRET).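 Note: Read-out is the coumarin to fluorescein emission ratio, referenced to unphosphorylated (0%) and phosphorylated (100%) Ser/Thr 18 peptide controls, values from dose-response curves by non-linear regression.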 It is filed as biochemical. The note with it: 30 μM ATP, 1 h room temperature.
A further test addresses recombinant GSK3β kinase (Homo sapiens (Human), UniProt P49841). Kind of test: GSK3β kinase assay (Ser/Thr 09 peptide Z-lyte FRET).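 Note: kinase activity read as coumarin to fluorescein emission ratio, 11-point threefold dilutions from 10 µM to 0.0003 µM in duplicate, unphosphorylated and phosphorylated peptide as 0% and 100% controls.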 It counts as biochemical. The conditions noted are these: 46 μM ATP, 1 h room temperature.
Test [2] has as its system Tau phosphorylation at Ser396 (pSer396). Kind of test: Tau phosphorylation assay (pSer396 ELISA / western blot) in SH-SY5Y cells.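 Note: EC50 for reduction of Tau pSer396 in lysed cells, measured by colorimetric ELISA or chemiluminescent western blot, both using the same pSer396 antibody.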 It is filed as cell-based, human. The note with it: Homo sapiens, read-out: pSer396 Tau EC50. In general terms: ELISA stands for enzyme-linked immunosorbent assay.
In another test the test system is IL-6. Nature of the test: IL-6 inhibition in LPS-stimulated human peripheral blood mononuclear cells (HTRF).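 For all read-outs here: IL-6 detected by HTRF with an XL665- and Cryptate-labelled anti-IL-6 antibody pair, samples run in duplicate, EC50 obtained from a four-parameter Levenberg-Marquardt curve fit.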 It is filed as cell-based. The note with it: Homo sapiens, PBMC; for EC50: Table 9, huPBMCs, LPS 50 ng/mL, 22 hours, dose-response starting from 10 μM; for inhibition at 10 µM: read-out: percent value in parentheses beside EC50 >10 μM. On the technique in general: TR-FRET usually uses a lanthanide donor and a delayed reading to cut background.

The subject of test [3] is α-smooth muscle actin (αSMA) positive LL29 cells. Kind of test: Inhibition of fibrotic process: αSMA in TGF-β1 treated primary human fibroblasts from IPF patients.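 For all read-outs here: controls were TGF-β1 stimulated wells with DMSO vehicle (positive) and cells given DMSO alone (negative), cultured in F12 medium with 1% fetal bovine serum.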 It counts as cell-based. The conditions noted are these: Homo sapiens, Fibroblast; for EC50: 96 h, Table 8, LL29 fibroblasts from IPF patients, TGF-β1 20 ng/mL, 4 days, dose-response 10 μM to 0.94 nM; for inhibition at 10 µM: read-out: percent value in parentheses beside EC50 >10 μM.

Test [4] concerns SW480 colon carcinoma cells. Kind of test: Cell viability assay (CellTiter-Glo). It is filed as cell-based, human. The conditions noted are these: Homo sapiens; for EC50: 96 h, SW480 cells, CellTiter-Glo, four days incubation; for inhibition at 10 µM: SW480, read-out: percent inhibition at 10 μM. A general note: In ATP-based viability assays light output follows the ATP content of the culture.

In test [5] the test system is Wnt pathway (Sp5-Luc reporter, TCF/LEF binding sites) in SW480 colon carcinoma cells. Kind of test: Screening assay for Wnt activity: Sp5-Luc reporter gene assay.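 For all read-outs here: firefly luciferase luminescence read in stably transduced SW480 cells carrying the Sp5 promoter reporter with eight TCF/LEF sites, compounds given in 0.1% DMSO final.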 It is filed as cell-based, human. The note with it: Homo sapiens; for EC50: Sp5-Luc reporter, SW480 cells, 36 to 48 hours; for inhibition at 10 µM: SW480, read-out: percent inhibition at 10 μM.
Method: The screening assay for Wnt activity is described as follows.
Following incubation, 15 μl of BriteLite Plus luminescence reagent (Perkin Elmer) was added to each well of the 384-well assay plates. The plates were placed on an orbital shaker for 2 min and then luminescence was quantified using the Envision (Perkin Elmer) plate reader.
[6] abbreviates: SH-SY5Y cells, overnight (16-18 h) exposure.

Chain of recombinant GSK3β kinase (P49841 whole entry): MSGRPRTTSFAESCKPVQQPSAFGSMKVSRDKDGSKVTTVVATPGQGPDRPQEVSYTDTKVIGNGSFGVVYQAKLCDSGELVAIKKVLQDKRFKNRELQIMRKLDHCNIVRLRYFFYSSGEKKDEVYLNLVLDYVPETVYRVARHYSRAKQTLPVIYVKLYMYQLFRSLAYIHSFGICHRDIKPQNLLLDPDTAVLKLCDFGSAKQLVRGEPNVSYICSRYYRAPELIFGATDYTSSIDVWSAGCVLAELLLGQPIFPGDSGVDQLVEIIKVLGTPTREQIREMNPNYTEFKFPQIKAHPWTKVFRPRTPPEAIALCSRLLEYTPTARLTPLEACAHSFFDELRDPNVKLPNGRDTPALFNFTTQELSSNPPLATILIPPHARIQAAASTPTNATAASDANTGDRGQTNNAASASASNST
Method for IL-6: After 22 hour incubation, a mixture of anti-IL6 XL665 and anti-IL-6 Cryptate diluted in reconstitution buffer (Catalog #62IL6PEC, Cisbio Inc., Bedford, Mass.) was added to each well. […] All samples were processed in duplicate. […] EC50 was determined using software generated by Dotmatics Limited (Windhill Bishops Stortford Herts, UK) using the Levenberg-Marquardt 4 parameter fitting procedure with finite different gradients.

What is called EC50 is the concentration at which the effect is half-maximal. Consider `CN1CC2(CC(C(=O)Nc3cc4cc(-c5cncn5C)ccc4cn3)C2)C1` [Compound 523, 2-Methyl-N-(6-(1-methyl-1H-imidazol-5-yl)isoquinolin-3-yl)-2-azaspiro[3.3] heptane-6-carboxamide], for which the EC50 is 2.9 nM in test [1]; 42 nM at recombinant GSK3β kinase; 2200 nM in test [2] (setting [6]); 201 nM in the test with IL-6; > 10000 nM in test [3]; 447 nM in test [4]. In test [5], this compound registered an EC50 of 683 nM. In addition, the inhibition at 10 µM in test [3] was determined as 32.6%.

Turning to `CC(C)OCCN1CCC(C(=O)Nc2cc3cc(-c4cnn(C)c4)ccc3cn2)CC1` [Compound 90, 1-(2-Isopropoxyethyl)-N-(6-(1-methyl-1H-pyrazol-4-yl)isoquinolin-3-yl) piperidine-4-carboxamide], the EC50 was determined as 3 nM in test [1]; 42 nM at recombinant GSK3β kinase; 302 nM in test [2] (setting [6]); 1080 nM with IL-6; 96 nM in test [3]; 1170 nM in test [4]. For the same compound, in test [5], a half-maximal response (EC50) required 1100 nM.

In the case of `O=C(CN1CCOCC1)Nc1cc2cc(-c3cncs3)ccc2cn1` [Compound 773, 2-Morpholino-N-(6-(thiazol-5-yl)isoquinolin-3-yl)acetamide], the EC50 was 3.8 nM in test [1]; 219 nM at recombinant GSK3β kinase; 2200 nM in test [2] (setting [6]); 3480 nM in the test on IL-6; > 10000 nM in test [3]; > 10000 nM in test [4]. In test [5], this compound displayed a 50% effective concentration (EC50) of 6550 nM. For the same compound, the results for the inhibition at 10 µM in test [3] and in test [4] were 30.3% and 48.4%, respectively.

With `Cc1nnc(-c2cc(F)c3cnc(NC(=O)CN4CCOCC4)cc3c2)s1` [Compound 963, N-(8-Fluoro-6-(5-methyl-1,3,4-thiadiazol-2-yl)isoquinolin-3-yl)-2-morpholinoacetamide], the EC50 in test [1] was 26.7 nM; at recombinant GSK3β kinase, 6 nM; in test [2] (setting [6]) it was 252 nM; in the test on IL-6 it was > 10000 nM; in test [3] it was 1190 nM; in test [4], > 10000 nM. Also, the half-maximal effective concentration (EC50) in test [5] amounted to 1200 nM. Besides, the inhibition at 10 µM in the test with IL-6 came out at 8.2%; in test [4], 49.2%.

Turning to `[2H]C([2H])([2H])n1cc(-c2ccc3cnc(NC(=O)[C@H](C)N4CCCC4)cc3c2)cn1` [Compound 971, (S)—N-(6-(1-(methyl-d3)-1H-pyrazol-4-yl)isoquinolin-3-yl)-2-(pyrrolidin-1-yl)propanamide], the EC50 in test [1] came out at 34.2 nM; on recombinant GSK3β kinase it was 34 nM; in test [2] (setting [6]) it was 191 nM; in the test on IL-6 it was 1220 nM; in test [3] it was 866 nM; in test [4], 1200 nM. This compound also returned an EC50 in test [5] of 720 nM.

With `Cn1cc(-c2ccc3cnc(NC(=O)C4CNC4)cc3c2)cn1` [Compound 16, N-(6-(1-Methyl-1H-pyrazol-4-yl)isoquinolin-3-yl)azetidine-3-carboxamide], the EC50 in test [1] is 3.9 nM; on recombinant GSK3β kinase it was 24 nM; in test [2] (setting [6]), > 10000 nM; in the test on IL-6, 2170 nM; in test [3], 1270 nM; in test [4], 7840 nM. Moreover, the half-maximal effective concentration (EC50) in test [5] was > 10000 nM.

For `Cn1cc(-c2ccc3cnc(NC(=O)C4CC5(CCN(CCF)CC5)C4)cc3c2)cn1` [Compound 301, 7-(2-Fluoroethyl)-N-(6-(1-methyl-1H-pyrazol-4-yl)isoquinolin-3-yl)-7-azaspiro[3.5]nonane-2-carboxamide], the EC50 stood at 2 nM in test [1]; 10 nM at recombinant GSK3β kinase; 108 nM in test [2] (setting [6]); 393 nM with IL-6; 4810 nM in test [3]; 550 nM in test [4]. The compound further returned a 50% effective concentration (EC50) in test [5] of 467 nM.

With `Cc1nnc(-c2ccc3cnc(NC(=O)C4CCN(CCC(F)(F)F)CC4)cc3c2)n1C` [Compound 279, N-(6-(4,5-Dimethyl-4H-1,2,4-triazol-3-yl)isoquinolin-3-yl)-1-(3,3,3-trifluoropropyl)piperidine-4-carboxamide], the concentration for a half-maximal effect (EC50) in test [1] is 7.8 nM; at recombinant GSK3β kinase, 14 nM; in test [2] (setting [6]), 498 nM; in the test on IL-6, > 10000 nM; in test [3], 1200 nM; in test [4], > 10000 nM. This compound also showed an EC50 in test [5] of 5650 nM. In addition, the inhibition at 10 µM in the test with IL-6 is 14.2%; in test [4], 52.4%.

Regarding `Cn1cc(-c2ccc3cnc(NC(=O)C4(F)CCNCC4)cc3c2)cn1` [Compound 91, 4-Fluoro-N-(6-(1-methyl-1H-pyrazol-4-yl)isoquinolin-3-yl)piperidine-4-carboxamide], the 50% effective concentration (EC50) in test [1] is 10.5 nM; on recombinant GSK3β kinase, 838 nM; in test [2] (setting [6]) it was 4700 nM; in the test with IL-6, > 10000 nM; in test [3], > 10000 nM; in test [4] it was 9590 nM. Moreover, the 50% effective concentration (EC50) in test [5] is > 10000 nM. Also, the inhibition at 10 µM with IL-6 is 40%; in test [3] it was 17.3%.

As to `Cn1cc(-c2ccc3cnc(NC(=O)C4C(C)(C)C4(C)C)cc3c2)nn1` [Compound 277, 2,2,3,3-Tetramethyl-N-(6-(1-methyl-1H-1,2,3-triazol-4-yl)isoquinolin-3-yl) cyclopropane-1-carboxamide], the EC50 was 2.3 nM in test [1]; 104 nM on recombinant GSK3β kinase; 1080 nM in test [2] (SH-SY5Y); > 10000 nM with IL-6; 245 nM in test [3]; 1400 nM in test [4]. In addition, in test [5], a half-maximal effect (EC50) was put at 5260 nM. The inhibition at 10 µM in the test with IL-6 was determined as 4%.

In the case of `[2H]C([2H])([2H])N1CCN(CC(=O)Nc2cc3cc(-c4cnn(C)c4)ccc3cn2)CC1` [Compound 965, N-(6-(1-Methyl-1H-pyrazol-4-yl)isoquinolin-3-yl)-2-(4-(methyl-d3)piperazin-1-yl)acetamide], the EC50 in test [1] stood at 10.6 nM; on recombinant GSK3β kinase it was 79 nM; in test [2] (setting [6]), 1000 nM; in the test on IL-6, 3260 nM; in test [3], 1370 nM; in test [4], 8630 nM. The compound further displayed an EC50 in test [5] of 3180 nM.

As for `Cn1ncc(-c2ccc3cnc(NC(=O)C4CC5(C4)CN(CCF)C5)cc3c2)c1CN1CCCCC1` [Compound 791, 2-(2-Fluoroethyl)-N-(6-(1-methyl-5-(piperidin-1-ylmethyl)-1H-pyrazol-4-yl)isoquinolin-3-yl)-2-azaspiro[3.3]heptane-6-carboxamide], the concentration giving a half-maximal response (EC50) in test [1] is 2.2 nM; on recombinant GSK3β kinase, 5 nM; in test [2] (setting [6]) it was 55 nM; with IL-6, 350 nM; in test [3] it was 67 nM; in test [4], 137 nM. This compound registered an EC50 in test [5] of 212 nM.

On to `CC(C)CN1CCC(C(=O)Nc2cc3cc(-c4cncn4C)ccc3cn2)CC1` [Compound 554, 1-Isobutyl-N-(6-(1-methyl-1H-imidazol-5-yl)isoquinolin-3-yl)piperidine-4-carboxamide], for which the EC50 in test [1] was found to be 1.4 nM; at recombinant GSK3β kinase, 38 nM; in test [2] (setting [6]), 95 nM; with IL-6, 439 nM; in test [3], 190 nM; in test [4], 366 nM. This compound also returned a concentration giving a half-maximal response (EC50) in test [5] of 272 nM.

As for `Cn1cc(-c2ccc3cnc(NC(=O)C45CCN(CC4)CC5)cc3c2)cn1` [Compound 1071, N-(6-(1-Methyl-1H-pyrazol-4-yl)isoquinolin-3-yl)quinuclidine-4-carboxamide], the EC50 was 16.5 nM in test [1]; 2730 nM on recombinant GSK3β kinase; 6900 nM in test [2] (SH-SY5Y); > 10000 nM in the test on IL-6; 712 nM in test [3]; > 10000 nM in test [4]. The EC50 in test [5] was > 10000 nM. Moreover, the inhibition at 10 µM in the test with IL-6 was 8.8%; in test [4], 26.2%; in test [5], 43.2%.

As for `Cn1cc(-c2ccc3cnc(NC(=O)C4CCOCC4)cc3c2)cn1` [Compound 114, N-(6-(1-Methyl-1H-pyrazol-4-yl)isoquinolin-3-yl)tetrahydro-2H-pyran-4-carboxamide], the EC50 in test [1] worked out at 1.9 nM; on recombinant GSK3β kinase, 32 nM; in test [2] (setting [6]), 286 nM; in the test on IL-6, 1140 nM; in test [3], 735 nM; in test [4], 3890 nM. The same compound returned an EC50 in test [5] of 835 nM.

On to `CN(CC(=O)Nc1cc2cc(-c3cnco3)ccc2cn1)C1CCC1` [Compound 980, 2-(Cyclobutyl(methyl)amino)-N-(6-(oxazol-5-yl)isoquinolin-3-yl)acetamide], for which the EC50 in test [1] is 19.1 nM; at recombinant GSK3β kinase, 389 nM; in test [2] (setting [6]), 2100 nM; in the test with IL-6 it was 3680 nM; in test [3], > 10000 nM; in test [4], 5740 nM. Further, in test [5], the EC50 was > 10000 nM. For the same compound, the inhibition at 10 µM is 40.3% in test [3] and 40.5% in test [5].
